Data as given in PubChem BioAssay AID248 (DTP/NCI, 2004).
Where “and” joins values, the source holds several entries; their conditions need not be identical. Equal values may be shown once. Toxic doses and inconclusive results are not listed.

System: L1210 leukemia ip in BDF1 mice, survival T/C
Assay: NCI In Vivo Anticancer Drug Screen. Data for tumor model L1210 Leukemia (intraperitoneal) in B6D2F1 (BDF1) mice
Conditions: endpoint: mean survival time, higher = longer survival
In short: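 Antitumor effect is assessed in tumor-bearing animals. Survival in the compound arm is compared with a vehicle-dosed control arm and expressed as their quotient.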

[1] = dose: 100.0 mg/kg/injection, schedule: Q01DX009 (ip), vehicle: saline with Tween-80
[2] = dose: 200.0 mg/kg/injection, schedule: Q01DX009 (ip), vehicle: saline with Tween-80

Question: How did the T/C (dose: 12.5 mg/kg/injection, schedule: Q01DX001 (ip), vehicle: Klucel (hydroxypropylcellulose) (HPC)) turn out when `COc1cc(N(CCCl)CCCl)c(OC)cc1C=Nc1cccc(F)c1` was run?
Answer: The T/C was 96 % of control.

Question: And the T/C (dose: 13.0 mg/kg/injection, schedule: Q01DX009 (ip), vehicle: carboxymethylcellulose (CMC))?
Answer: Its T/C is 116 % of control.

Question: What about the T/C (dose: 20.0 mg/kg/injection, schedule: Q01DX001 (ip), vehicle: Klucel (hydroxypropylcellulose) (HPC)) of the same compound?
Answer: The T/C was 117 % of control.

Question: And the T/C (dose: 20.0 mg/kg/injection, schedule: Q01DX009 (ip), vehicle: carboxymethylcellulose (CMC))?
Answer: Its T/C is 120 % of control.

Question: What about the T/C (dose: 25.0 mg/kg/injection, schedule: Q01DX001 (ip), vehicle: Klucel (hydroxypropylcellulose) (HPC)) of the same compound?
Answer: The T/C was 101 % of control.

Question: What about the T/C (dose: 30.0 mg/kg/injection, schedule: Q01DX009 (ip), vehicle: carboxymethylcellulose (CMC)) of the same compound?
Answer: Its T/C is 118 % of control.

Question: And the T/C (dose: 50.0 mg/kg/injection, schedule: Q01DX001 (ip), vehicle: Klucel (hydroxypropylcellulose) (HPC))?
Answer: The T/C was 98 % of control.

Question: What about the T/C (dose: 75.0 mg/kg/injection, schedule: Q01DX001 (ip), vehicle: Klucel (hydroxypropylcellulose) (HPC)) of the same compound?
Answer: Its T/C is 101 % of control and 118 % of control.

Question: And the T/C (dose: 177.0 mg/kg/injection, schedule: Q01DX001 (ip), vehicle: carboxymethylcellulose (CMC))?
Answer: The T/C was 122 % of control.

Question: And the T/C (dose: 200.0 mg/kg/injection, schedule: Q01DX001 (ip), vehicle: carboxymethylcellulose (CMC))?
Answer: The T/C was 102 % of control.

Question: And the T/C (dose: 400.0 mg/kg/injection, schedule: Q01DX001 (ip), vehicle: carboxymethylcellulose (CMC))?
Answer: The T/C was 153 % of control.

Question: What about the T/C (dose: 600.0 mg/kg/injection, schedule: Q01DX001 (ip), vehicle: carboxymethylcellulose (CMC)) of the same compound?
Answer: Its T/C is 124 % of control.

Question: How did the T/C (dose: 50.0 mg/kg/injection, schedule: Q01DX009 (ip), vehicle: saline with Tween-80) turn out when `CCOC(=O)/C=C/c1ccco1` was run?
Answer: Its T/C is 93 % of control.

Question: What about the T/C [1] of the same compound?
Answer: The T/C was 96 % of control.

Question: What about the T/C (dose: 100.0 mg/kg/injection, schedule: Q04DX003 (ip), vehicle: saline with Tween-80) of the same compound?
Answer: The T/C was 103 % of control.

Question: And the T/C [2]?
Answer: The T/C was 93 % of control.

Question: And the T/C (dose: 200.0 mg/kg/injection, schedule: Q04DX003 (ip), vehicle: saline with Tween-80)?
Answer: Its T/C is 95 % of control.

Question: Which results are given for `CCCCCCCCC/C(=N\Nc1ccc([N+](=O)[O-])cc1[N+](=O)[O-])c1ccccc1`?
Answer: T/C (dose: 100.0 mg/kg/injection, schedule: Q04DX003 (ip), vehicle: saline sonified): 108 % of control; T/C (dose: 200.0 mg/kg/injection, schedule: Q04DX003 (ip), vehicle: saline sonified): 98 % of control; T/C (dose: 400.0 mg/kg/injection, schedule: Q04DX003 (ip), vehicle: saline sonified): 108 % of control

Question: Which results are given for `CCOC(=O)C(c1cccc(OC)c1)C1(C(=O)OCC)CC2(CCC1=O)OCCO2` (centres undefined)?
Answer: T/C (dose: 100.0 mg/kg/injection, schedule: Q01DX009 (ip), vehicle: Klucel (hydroxypropylcellulose) (HPC)): 93 % of control; T/C (dose: 200.0 mg/kg/injection, schedule: Q01DX009 (ip), vehicle: Klucel (hydroxypropylcellulose) (HPC)): 95 % of control; T/C (dose: 400.0 mg/kg/injection, schedule: Q01DX009 (ip), vehicle: Klucel (hydroxypropylcellulose) (HPC)): 88 % of control

Question: Which results are given for `CC(=O)Oc1c(Br)c(-c2cc([N+](=O)[O-])c(C)c([N+](=O)[O-])c2C)c(OC(C)=O)c(Br)c1-c1cc([N+](=O)[O-])c(C)c([N+](=O)[O-])c1C`?
Answer: T/C [1]: 104 % of control; T/C [2]: 91 % of control; T/C (dose: 400.0 mg/kg/injection, schedule: Q01DX009 (ip), vehicle: saline with Tween-80): 88 % of control

Question: With `Brc1ccc[n+](Cc2ccccc2)c1` as the compound, how does the T/C (dose: 75.0 mg/kg/injection, schedule: Q01DX001 (ip), vehicle: saline) read?
Answer: The T/C was 98 % of control.

Question: For `[N-]=[N+]=CC(=O)NCC(=O)NO`, which T/C (dose: 50.0 mg/kg/injection, schedule: Q01DX001 (ip), vehicle: water) is on record?
Answer: The T/C was 117 % of control.

Question: What about the T/C (dose: 75.0 mg/kg/injection, schedule: Q01DX009 (ip), vehicle: water) of the same compound?
Answer: The T/C was 95 % of control.

Question: And the T/C (dose: 100.0 mg/kg/injection, schedule: Q01DX001 (ip), vehicle: water)?
Answer: Its T/C is 96 % of control.

Question: What about the T/C (dose: 100.0 mg/kg/injection, schedule: Q01DX009 (ip), vehicle: other) of the same compound?
Answer: The T/C was 100 % of control.

Question: What about the T/C (dose: 150.0 mg/kg/injection, schedule: Q01DX009 (ip), vehicle: water) of the same compound?
Answer: Its T/C is 120 % of control.

Question: What about the T/C (dose: 180.0 mg/kg/injection, schedule: Q01DX001 (ip), vehicle: water) of the same compound?
Answer: The T/C was 116 % of control.

Question: And the T/C (dose: 200.0 mg/kg/injection, schedule: Q01DX001 (ip), vehicle: water)?
Answer: The T/C was 102 % of control.

Question: And the T/C (dose: 200.0 mg/kg/injection, schedule: Q01DX009 (ip), vehicle: other)?
Answer: The T/C was 101 % of control.

Question: And the T/C (dose: 270.0 mg/kg/injection, schedule: Q01DX001 (ip), vehicle: water)?
Answer: Its T/C is 110 % of control.

Question: And the T/C (dose: 270.0 mg/kg/injection, schedule: Q01DX009 (ip), vehicle: water)?
Answer: The T/C was 155 % of control.

Question: And the T/C (dose: 300.0 mg/kg/injection, schedule: Q01DX009 (ip), vehicle: other)?
Answer: The T/C was 111 % of control.

Question: And the T/C (dose: 300.0 mg/kg/injection, schedule: Q01DX009 (ip), vehicle: water)?
Answer: The T/C was 123 % of control.

Question: And the T/C (dose: 400.0 mg/kg/injection, schedule: Q01DX001 (ip), vehicle: water)?
Answer: The T/C was 108 % of control and 111 % of control and 113 % of control.

Question: And the T/C (dose: 450.0 mg/kg/injection, schedule: Q01DX008 (ip), vehicle: water)?
Answer: Its T/C is 150 % of control.

Question: What about the T/C (dose: 500.0 mg/kg/injection, schedule: Q01DX009 (ip), vehicle: other) of the same compound?
Answer: The T/C was 97 % of control.

Question: What about the T/C (dose: 600.0 mg/kg/injection, schedule: Q01DX009 (ip), vehicle: water) of the same compound?
Answer: Its T/C is 91 % of control.

Question: What about the T/C (dose: 1600.0 mg/kg/injection, schedule: Q01DX001 (ip), vehicle: water) of the same compound?
Answer: The T/C was 90 % of control.
